Assay: xn = mol fraction of the nth substance listed
Conditions: 101 kPa, Fluid (supercritical or subcritical phases), Taylor dispersion method, x1 = 0

Compound	binary diffusion coefficient (298 K)	binary diffusion coefficient (312 K)	binary diffusion coefficient (332 K)	binary diffusion coefficient (352 K)	binary diffusion coefficient (372 K)	binary diffusion coefficient (392 K)	binary diffusion coefficient (413 K)
O=c1c(O[C@@H]2O[C@H]([C@H](O)CO)[C@H](O)[C@H]2O)c(-c2ccc(O)c(O)c2)oc2cc(O)cc(O)c12 [isoquercitrin] + O	1.66e-10 m2/s	2.19e-10 m2/s	2.77e-10 m2/s	3.07e-10 m2/s	3.51e-10 m2/s		
O=C(O)c1ccc(O)c(O)c1 [3,4-dihydroxybenzoic acid] + O	2.46e-10 m2/s	3.2e-10 m2/s	3.84e-10 m2/s	4.15e-10 m2/s	5.12e-10 m2/s	5.27e-10 m2/s	
Oc1cc(O)c2c(c1)O[C@H](c1ccc(O)c(O)c1)[C@H](O)C2 + O	1.97e-11 m2/s	2.66e-11 m2/s	3.38e-11 m2/s	3.89e-11 m2/s	4.06e-11 m2/s	5.19e-11 m2/s	
COc1cc(-c2[o+]c3cc(O)cc(O)c3cc2O[C@@H]2O[C@H](CO)[C@@H](O)[C@H](O)[C@H]2O)ccc1O.[Cl-] + O	2.19e-10 m2/s	2.67e-10 m2/s	3.65e-10 m2/s	4.52e-10 m2/s	5.39e-10 m2/s	6.18e-10 m2/s	6.49e-10 m2/s
O=C(O)c1cc(O)c(O)c(O)c1 [3,4,5-trihydroxybenzoic acid] + O	2.5e-10 m2/s	2.87e-10 m2/s	3.3e-10 m2/s	4.07e-10 m2/s			
COc1cc(-c2[o+]c3cc(O)cc(O[C@@H]4O[C@H](CO)[C@@H](O)[C@H](O)[C@H]4O)c3cc2O[C@@H]2O[C@H](CO)[C@@H](O)[C@H](O)[C@H]2O)cc(OC)c1O.[Cl-] [malvidin-3,5-diglucoside chloride] + O	2.16e-10 m2/s	2.71e-10 m2/s	3.6e-10 m2/s	4.41e-10 m2/s	5.15e-10 m2/s	5.3e-10 m2/s	5.79e-10 m2/s
Oc1cc(O)c2c(c1)O[C@H](c1ccc(O)c(O)c1)[C@@H](O)C2 [(+)-catechin] + O	2.33e-10 m2/s	3.07e-10 m2/s	3.76e-10 m2/s	4.05e-10 m2/s	4.25e-10 m2/s	4.78e-10 m2/s	5.3e-10 m2/s

Reference: the NIST ThermoML archive (doi:10.1016/j.fluid.2010.12.003)
